From ChEMBL document CHEMBL4177744, “Discovery of novel scaffolds for γ-secretase modulators without an arylimidazole moiety” (Bioorg Med Chem, 2018) come the findings set out here.

In series [1] the target is T1, CYP3A4 (Homo sapiens, UniProt P08684). As to the kind of experiment: Inhibition of CYP3A4 in human liver microsomes assessed as residual activity at 5 uM using midazolam as substrate after 20 mins in presence of NADPH by LC-MS/MS analysis relative to control. The series is classed as ADME. The settings on record: probe midazolam, read-out: Activity. In general terms: Liver microsomes are vesicles of endoplasmic reticulum, rich in cytochrome P450 enzymes.
T1 sequence (P08684 whole entry): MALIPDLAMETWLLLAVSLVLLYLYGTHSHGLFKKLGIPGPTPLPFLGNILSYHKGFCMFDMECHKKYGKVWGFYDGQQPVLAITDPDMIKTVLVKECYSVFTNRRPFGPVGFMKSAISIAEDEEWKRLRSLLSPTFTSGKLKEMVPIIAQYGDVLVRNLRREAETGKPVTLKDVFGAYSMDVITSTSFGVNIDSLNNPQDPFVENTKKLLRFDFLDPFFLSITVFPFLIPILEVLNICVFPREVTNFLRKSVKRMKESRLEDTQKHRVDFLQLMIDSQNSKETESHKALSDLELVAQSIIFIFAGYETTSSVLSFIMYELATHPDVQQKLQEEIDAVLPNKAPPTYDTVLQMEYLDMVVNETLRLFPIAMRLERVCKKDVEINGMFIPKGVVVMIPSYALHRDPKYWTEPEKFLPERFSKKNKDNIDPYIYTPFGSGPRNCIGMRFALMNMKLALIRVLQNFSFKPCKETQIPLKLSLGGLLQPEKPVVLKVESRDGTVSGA

Series [2] concerns the target T1, CYP3A4. As to the kind of experiment: Inhibition of CYP3A4 in human liver microsomes assessed as residual activity at 5 uM using midazolam as substrate preincubated for 30 mins followed by substrate addition measured after 20 mins in presence of NADPH by LC-MS/MS analysis relative to control. The series is classed as ADME. To be noted: probe midazolam, read-out: Activity.

Series [3] is described as follows: Intrinsic clearance in CD-1 mouse liver microsomes assessed per mg protein at 0.2 uM by LC-MS/MS analysis. The series is classed as ADME, microsome. To be noted: read-out: CLH.
The target in the next series is Gamma-secretase. As to the kind of experiment: Modulatory activity against gamma-secretase in human SK-N-BE(2) cells assessed as reduction in amyloid beta 42 production after 6 hrs by sandwich ELISA. The series is classed as cell-based. (In general: ELISA stands for enzyme-linked immunosorbent assay.)
Series [4] can be described thus: Brain to plasma partition coefficient, Kp in ddY mouse at 30 mg/kg, ip after 1 hr by LC-MS/MS analysis. The series is classed as ADME, organism-based.
A short description of series [5]: Drug uptake in ddY mouse plasma at 30 mg/kg, ip after 1 hr by LC-MS/MS analysis. The series is classed as ADME, organism-based.
Series [6] can be described thus: Drug uptake in ddY mouse brain at 30 mg/kg, ip after 1 hr by LC-MS/MS analysis. The settings on record: in vivo. The series is classed as ADME, organism-based.
Series [7] is described as follows: Drug uptake in ddY mouse plasma at 30 mg/kg, ip after 3 hrs by LC-MS/MS analysis. The series is classed as ADME, organism-based.
Series [8] can be described thus: […], Kp in ddY mouse brain at 30 mg/kg, ip after 3 hrs by LC-MS/MS analysis. The series is classed as ADME, organism-based. The settings on record: BLD = below limit of detection.
Series [9] in a line: Drug uptake in ddY mouse brain at 30 mg/kg, po after 1 hr by LC-MS/MS analysis. The series is classed as ADME, organism-based. To be noted: in vivo.
The nature of series [10]: Drug uptake in ddY mouse plasma at 30 mg/kg, po after 3 hrs by LC-MS/MS analysis. The series is classed as ADME, organism-based.
Series [11] can be described thus: Drug uptake in ddY mouse plasma at 30 mg/kg, po after 1 hr by LC-MS/MS analysis. The series is classed as ADME, organism-based.
A short description of series [12]: Brain to plasma partition coefficient, Kp in ddY mouse at 30 mg/kg, po after 1 hr by LC-MS/MS analysis. The series is classed as ADME, organism-based.
Series [13] can be described thus: Drug uptake in ddY mouse brain at 30 mg/kg, po after 3 hrs by LC-MS/MS analysis. The series is classed as ADME, organism-based. The settings on record: in vivo.
The nature of series [14]: Brain to plasma partition coefficient, Kp in ddY mouse at 30 mg/kg, po after 3 hrs by LC-MS/MS analysis. The series is classed as ADME, organism-based.

A word on the IC50: it is the concentration that inhibits the measured activity by half.

As to `COc1cc(/C=C2\CCCN([C@@H](C)c3ccc(F)cc3)C2=O)ccc1-n1cnc(C)c1`, the activity at 20 min, 5 µM on CYP3A4 [1] was 40%; on CYP3A4 [2], 29%.

For the molecule `CCCCN1CCC(c2c(C)nc3c(OCc4ccccc4C)cccn23)CC1`, the microsomal CLint at 0.2 µM in [3] was more than 1000 µL/min/mg. Moreover, the IC50 on Gamma-secretase was determined as 8.7 µM.

As for `Cc1ccccc1COc1cccn2c(C3CCN(C)CC3)c(C)nc12`, the IC50 on Gamma-secretase worked out at 9.8 µM.

Take `Cc1nc2c(OCc3ccccc3)cccn2c1CN(C)CCN(C)C`: the IC50 at Gamma-secretase was more than 50 µM.

Consider `CCNC(=O)c1ccc(-c2c(C)nc3c(OCc4ccccc4C)cccn23)cc1`, for which the 50% inhibitory concentration (IC50) at Gamma-secretase is 2.3 µM.

As for `Cc1nc2c(OCc3ccccc3)cccn2c1C1CCN(C2CCCCC2)CC1`, the IC50 at Gamma-secretase was 5.8 µM.

Take `CCCC(=O)N1CCC(c2c(C)nc3c(OCc4ccccc4C)cccn23)CC1.Cl`: the Kp at 1 h in series [4] amounted to 1. Besides, the concentration at 1 h in series [5] worked out at 700 nM. The molecule also returned a Drug uptake in series [6] of 0.71 nmol/g. Also, in series [3], the microsomal CLint at 0.2 µM is more than 1000 µL/min/mg. Besides, in [7], the concentration at 3 h amounted to 9.4 nM. Further, in series [8], the Kp result is “Bld”. Further, the IC50 on Gamma-secretase came out at 0.69 µM.

Turning to `CCCCc1ccc(-c2c(C)nc3c(OCc4ccccc4C)cccn23)cc1`, the microsomal CLint at 0.2 µM in [3] was found to be 628 µL/min/mg. Further, on Gamma-secretase, the IC50 is more than 50 µM.

As for `CCOC(=O)c1ccc(-c2c(C)nc3c(OCc4ccccc4C)cccn23)cc1`, the IC50 on Gamma-secretase turned out to be 1.8 µM.

In the case of `CCOC(=O)N1CCC(c2c(C)nc3c(OCc4ccccc4C)cccn23)CC1`, at Gamma-secretase, the IC50 came out at 1.3 µM.

`Cc1ccccc1COc1cccn2c(-c3ccncc3)c(C)nc12`: the IC50 on Gamma-secretase was 7.1 µM.

On to `CCN1Cc2cc(-c3c(C)nc4c(OCc5ccccc5C)cccn34)ccc2C1=O.Cl`, for which the Drug uptake amounted to 1.9 nmol/g in series [9] and 0.69 nmol/g in series [13]. The figures for the activity at 20 min, 5 µM at CYP3A4 [1] and at CYP3A4 [2] were 85% and 87%, respectively. Further, the concentration at 3 h in series [10] worked out at 960 nM. In [11], the concentration at 1 h was found to be 2500 nM. In addition, in [3], the microsomal CLint at 0.2 µM is 611 µL/min/mg. This molecule also gave a Kp at 1 h in series [12] of 0.72. The Kp at 3 h in series [14] worked out at 0.72. For the same molecule, on Gamma-secretase, the IC50 stood at 0.39 µM.

Take `CCN(C)C(=O)c1ccc(-c2c(C)nc3c(OCc4ccccc4C)cccn23)cc1`: at Gamma-secretase, the IC50 is more than 10 µM.
